In patent publication US6498254B1, “Antiretroviral compounds and compositions” (Uniroyal Chemical Company, Inc., priority 2001, dated 2002):
Values after ≈ are worked out from the molar mass of the structure shown. Like-named read-outs stand apart in the source and are kept apart here.

Key:
HIV-1 (IIIB) = assay: Inhibition of HIV-1 syncytium formation in CEM cells; type: cell-based; details: for EC50: read-out: EC50 (μg/ml) HIV-1; for HIV-1 % Protection: protection of CEM cells against virus-induced cytopathicity at the compound concentration in the previous column
From the text: (§1) The cell type used to determine activity of the compounds of the invention herein, i.e., the test compounds, against HIV was human T-lymphoblast (CEM) cells obtained from the American Tissue Cell Culture Collection (Rockville, Md.). HIV-1 (IIIB) was originally obtained from the culture of persistently HIV-1 infected H9 cells and was provided by R. C. Gallo and M. Popovic (National Cancer Institute, National Institutes of Health, Bethesda, Md.). HIV-2 (ROD) was originally obtained from L. M. Montagnier (Pasteur Institute, Paris, France).
(§2) To determine the antiviral activity of the test compounds, CEM cells were suspended at a cell density of approximately 300,000 cells per ml of culture medium and infected with approximately 100 CClD50 (100 CClD50 being the 50% cell culture infective dose) of HIV-1 (IIIB) or HIV-2 (ROD)). Then 100 μl of the infected cell suspensions was added to 200 μl micro titer plate wells containing 100 μl of appropriate serial (5-fold) dilutions of the test compounds. The inhibitory effect of the test compounds on HIV-1 or HIV-2 syncytium formation in CEM cells was examined microscopically on day four post infection. The 50% effective concentration (EC50) was defined as the test compound concentration that inhibits syncytium formation in the HIV-1 or HIV-2 infected cell cultures by 50%.
(§3) In some cases, the compounds had considerable cytotoxicity to CEM cells which made determination of the EC50 difficult. In these cases, the percent protection of the cells against virus-induced cytopathicity by the test compounds at the indicated compound concentration in the previous column is given.

HIV-2 (ROD) = assay: Inhibition of HIV-2 syncytium formation in CEM cells; type: cell-based; details: for EC50: Human immunodeficiency virus 2, CCRF-CEM, read-out: EC50 (μg/ml) HIV-2; for HIV-2 % Protection: protection of CEM cells against virus-induced cytopathicity at the compound concentration in the previous column
From the text: as §1, §2, §3

CMV Davis strain = assay: Activity against HCMV: virus-induced cytopathicity in HEL cells; type: cell-based, human cytomegalovirus (HCMV); details: for IC50: read-out: Antiviral IC50 (μg/ml) Davis strain; for Antiviral % Inhibition Davis strain: estimate of percent protection of HEL cells at the compound concentration
Protocol: Confluent HEL cells grown in […] microtiter plates were inoculated with CMV at an input of 100 PFU (plaque forming units) per well. After a one to two hour incubation period, residual virus was removed and the infected cells were further incubated with MEM (Minimal Essential Medium) (supplemented with 2% inactivated Fetal Calf Serum (FCS), […], and 0.3% sodium bicarbonate) containing varying concentrations of the test compounds. Antiviral activity was expressed as EC50 (50% effective concentration), or test compound concentration required to reduce virus-induced cytopathicity after seven days by 50% compared to the untreated control.
In some cases, the compounds had considerable cytotoxicity against HEL cells, which made determination of the EC50's difficult. In these cases, an estimate of the percent protection at the compound concentration indicated in the previous columns is given.

[1] = Human immunodeficiency virus 1, CCRF-CEM, HIV-1 (IIIB) infected CEM cells, syncytium formation, day four post infection
[2] = HIV-2 (ROD) infected CEM cells, syncytium formation, day four post infection
[3] = Human betaherpesvirus 5, 168 h, CMV-infected HEL cells, virus-induced cytopathicity after seven days
[4] = Human immunodeficiency virus 1, IIIB, CCRF-CEM
[5] = Human betaherpesvirus 5, HEL, 168 h

| Compound | EC50 (HIV-1 (IIIB); [1]) | HIV-1 % Protection (HIV-1 (IIIB)) | EC50 (HIV-2 (ROD); [2]) | HIV-2 % Protection (HIV-2 (ROD)) | melting point | IC50 (CMV Davis strain; [3]) | EC50 (HIV-1 (IIIB); [4]) | EC50 (HIV-2 (ROD)) | IC50 (CMV Davis strain; [5]) | EC50 (μg/ml) HIV-1 (HIV-1 (IIIB); HIV-1 (IIIB) infected CEM cells, syncytium formation, day four post infection) | Antiviral IC50 (μg/ml) Davis strain (CMV Davis strain; CMV-infected HEL cells, virus-induced cytopathicity after seven days) | Antiviral % Inhibition Davis strain (CMV Davis strain) |
| --- | --- | --- | --- | --- | --- | --- | --- | --- | --- | --- | --- | --- |
| Cc1ccc(C)c(C(C)S(=O)(=O)c2cc(C)cc(C)[n+]2[O-])c1 (stereo not shown) [Compound 81, 2-[1-(2,5-dimethylphenyl)ethylsulfonyl]-4,6-dimethylpyridine-N-oxide] | ≥ 20 µg/mL | 37.5% | > 20 µg/mL | 0.0% | 201 to 204 °C | 8.6 µg/mL (≈ 26.9 µM) | – | – | – | – | – | – |
| O=[N+]([O-])c1cccnc1SCc1ccccc1 [Compound 146, 2-benzylthio-3-nitropyridine] | – | – | – | 37.5% | – | – | 2.3 µg/mL (≈ 9.34 µM) | ≥ 20 µg/mL | 40 µg/mL (≈ 162 µM) | – | – | – |
| Cc1cc(CS(=O)(=O)c2cccc[n+]2[O-])ccc1[N+](=O)[O-] [Compound 66, 2-[[(3-methyl-4-nitrophenyl)methyl]sulfonyl]pyridine-N-oxide] | 3.1 µg/mL (≈ 10.1 µM) | – | 2.5 µg/mL (≈ 8.11 µM) | – | – | 5 µg/mL (≈ 16.2 µM) | – | – | – | – | – | – |
| COc1ccc(CSc2cc(C(C)(C)C)cc[n+]2[O-])cc1 [Compound 134, 4-(1,1-dimethylethyl)-2-[(4-methoxyphenyl)methylthio]pyridine-N-oxide] | > 20 µg/mL | 0.0% | > 100 µg/mL | 0.0% | – | > 50 µg/mL | – | – | – | – | – | – |
| Cc1ccc[n+]([O-])c1SCc1c(Cl)cccc1Cl [Compound 137, 2-[[(2,6-dichlorophenyl)methyl]thio]-3-methyl-pyridine-N-oxide] | – | 0.0% | – | 0.0% | – | – | > 20 µg/mL | > 20 µg/mL | 28 µg/mL (≈ 93.3 µM) | – | – | – |
| 1,4[1,2,4,5-tetramethylbenzyl]-bis-(2′-sulfonylpyridine-N-oxide) [Compound 25] | – | – | – | 37.5% | – | – | – | – | – | 10.00 µg/mL | 16.0 µg/mL | – |
| O=[N+]([O-])c1ccc(CS(=O)(=O)c2cccc[n+]2[O-])c(Cl)c1 [Compound 69, 2-[[(2-chloro-4-nitrophenyl)methyl]sulfonyl]pyridine-N-oxide] | 2.9 µg/mL (≈ 8.82 µM) | – | 2.9 µg/mL (≈ 8.82 µM) | – | – | > 5 µg/mL | – | – | – | – | – | 20.0% |
| Cc1ccc(C)c(CSc2ccccn2)c1.Cl [Compound 157, 2-(2,5-dimethylphenylmethylthio)pyridine hydrochloride] | 6 µg/mL | – | ≥ 20 µg/mL | 37.5% | – | > 50 µg/mL | – | – | – | – | – | 0.0% |
| CN1CCCC(CSc2cccc[n+]2[O-])C1 (stereo not shown) [Compound 156, 2-(N-methyl-3-piperidylmethylthio)pyridine-N-oxide] | – | – | – | 0.0% | – | – | 16 µg/mL (≈ 67.1 µM) | > 100 µg/mL | > 50 µg/mL | – | – | 0.0% |
| O=[N+]([O-])c1cc(CS(=O)(=O)c2cccc[n+]2[O-])cc([N+](=O)[O-])c1 [Compound 65, 2-[[(3,5-dinitrophenyl)methyl]sulfonyl]pyridine-N-oxide] | 2.8 µg/mL (≈ 8.25 µM) | – | 3.5 µg/mL (≈ 10.3 µM) | – | – | 5 µg/mL (≈ 14.7 µM) | – | – | – | – | – | – |
| COCC(c1cc(C)ccc1C)S(=O)(=O)c1ccccn1 (stereo not shown) [Compound 123, 2-[[1-(2,5-dimethylphenyl)-2-methoxyethyl]sulfonyl]pyridine] | 60 µg/mL (≈ 196 µM) | – | > 100 µg/mL | 0.0% | – | > 50 µg/mL | – | – | – | – | – | 40.0% |
| Cc1ccc(C)c(C(C)S(=O)(=O)c2ccccn2)c1 (stereo not shown) [Compound 161, 2-[1-(2,5-dimethylphenyl)ethylsulfonyl]pyridine] | 9.5 µg/mL (≈ 34.5 µM) | – | > 100 µg/mL | 0.0% | – | 38 µg/mL (≈ 138 µM) | – | – | – | – | – | – |
| Cc1ccc(C)c(CSc2ccccn2)c1 [Compound 148, 2-((2,5-dimethylphenyl)methylthio) pyridine] | – | – | – | – | – | – | > 20 µg/mL | > 20 µg/mL | 0.4 µg/mL (≈ 1.74 µM) | – | – | – |
| CC(C)c1cc(CS(=O)(=O)c2cccc[n+]2[O-])c(C(C)C)cc1Br [Compound 63, 2-[[[2,5-bis(1-methylethyl)-4-bromophenyl]methyl]sulfonyl]pyridine-N-oxide] | 2.3 µg/mL (≈ 5.58 µM) | – | 2.5 µg/mL (≈ 6.06 µM) | – | – | 3.7 µg/mL (≈ 8.97 µM) | – | – | – | – | – | – |
| COc1cc(C=C(C#N)Sc2cccc[n+]2[O-])cc(OC)c1OC [Compound 160, 2-[1-cyano-2-(3,4,5-trimethoxyphenyl)ethenethio]pyridine-N-oxide] | – | 0.0% | – | 0.0% | – | – | > 20 µg/mL | > 20 µg/mL | 7 µg/mL (≈ 20.3 µM) | – | – | – |
| Cc1ccc(C)c(CS(=O)(=O)c2cccc(Cl)[n+]2[O-])c1 [Compound 77, 2-(2,5-dimethylphenylmethylsulfonyl)-6-chloropyridine-N-oxide] | 0.7 µg/mL (≈ 2.25 µM) | – | > 0.8 µg/mL | 0.0% | – | 11 µg/mL (≈ 35.3 µM) | – | – | – | – | – | – |
| CCC(C)(C)c1ccc(CS(=O)(=O)c2cccc[n+]2[O-])cc1 [Compound 40, 2-(4′-tert-pentylphenylmethylsulfonyl)pyridine-N-oxide] | 3.1 µg/mL (≈ 9.7 µM) | – | 3.4 µg/mL (≈ 10.6 µM) | – | – | 1.5 µg/mL (≈ 4.7 µM) | – | – | – | – | – | – |
| [O-][n+]1cccc(Cl)c1[S+]([O-])Cc1ccccc1 (stereo not shown) [Compound 136, 3-chloro-2-[(phenylmethyl)sulfinyl]pyridine-N-oxide] | 1.5 µg/mL (≈ 5.6 µM) | – | > 4 µg/mL | 0.0% | – | 4.7 µg/mL (≈ 17.6 µM) | – | – | – | – | – | – |
| [O-][n+]1cccc(Cl)c1SCc1ccccc1 [Compound 132, 3-chloro-2-[(phenylmethyl)thio]pyridine-N-oxide] | – | – | – | 0.0% | – | – | 2.4 µg/mL (≈ 9.53 µM) | > 20 µg/mL | > 50 µg/mL | – | – | 0.0% |
| Cc1ccc(N)cc1C(C)S(=O)(=O)c1cccc[n+]1[O-] (stereo not shown) [Compound 1, 2-[[1-(5-amino-2-methylphenyl)ethyl]sulfonyl]pyridine-N-oxide] | 20 µg/mL (≈ 68.4 µM) | – | 41 µg/mL (≈ 140 µM) | – | – | > 50 µg/mL | – | – | – | – | – | 0.0% |
| COc1ccc(C=C(C#N)Sc2cccc[n+]2[O-])cc1 [Compound 159, 2-[1-cyano-2-(p-methoxyphenyl)ethenethio]pyridine-N-oxide] | – | 0.0% | – | 25.0% | – | – | > 20 µg/mL | > 20 µg/mL | 10 µg/mL (≈ 35.2 µM) | – | – | – |
| Cc1ccc(C)c(CSc2c(Cl)ccc[n+]2[O-])c1 [Compound 133, 3-chloro-2-[[(2,5-dimethylphenyl)methyl]thio]pyridine-N-oxide] | – | – | – | 0.0% | – | – | 0.14 µg/mL (≈ 0.5 µM) | > 20 µg/mL | 25 µg/mL (≈ 89.4 µM) | – | – | – |
| [O-][n+]1cc(Cl)ccc1SCc1ccccc1 [Compound 151, 5-chloro-2(benzylthio)pyridine-N-oxide] | – | 0.0% | – | 0.0% | – | – | > 20 µg/mL | > 20 µg/mL | > 20 µg/mL | – | – | 20.0% |
| Cc1ccc(C)c(CSc2cccc[n+]2C)c1 [Compound 142, 2[[(2,5-dimethylphenyl)methyl]thio]-1-methylpyridinium chloride] | – | 0.0% | – | 0.0% | – | – | > 4 µg/mL | > 4 µg/mL | 3.4 µg/mL | – | – | – |
| Cc1ccc(C)c(C(C)S(=O)(=O)c2c(Cl)ccc[n+]2[O-])c1 (stereo not shown) [Compound 124, 3-chloro-2-[[1-(2,5-dimethylphenyl)ethyl]sulfonyl]pyridine-N-oxide] | > 0.8 µg/mL | 0.0% | > 0.8 µg/mL | 0.0% | – | > 5 µg/mL | – | – | – | – | – | 10.0% |
| Cc1ccc[n+]([O-])c1[S+]([O-])Cc1c(Cl)cccc1Cl (stereo not shown) [Compound 138, 2-[[(2,6-dichlorophenyl)methyl]sulfinyl]-3-methyl-pyridine-N-oxide] | > 100 µg/mL | 0.0% | > 100 µg/mL | 0.0% | – | > 50 µg/mL | – | – | – | – | – | 20.0% |
